Data published in patent US20180073018A1, “COMPOSITIONS AND METHODS FOR SPECIFIC REACTIVATION OF HIV LATENT RESERVOIR” (priority 2015, published 2018).

Legend:
HIV-1 LTR promoter [1] = assay: dCas9-VPH/msgRNA (or SAHA) reactivation of latent LTR-eLuc reporter in TZM-bI cells; assay type: cell-based
Method: Cells were plated in 96-well plate and the indicated MS2-gRNAs were cotransfected by Lipofectamine 3000 (FIG. 3A) or coinfected by lentiviruses (FIG. 3B, MOI=50) with pMSCV-LTR-dCas9-VP64-BFP plus pLV-MS2-p65-HSF1-GFP. Two days later, OneGlo luminescence assay was performed. The SIV MS2-gRNA-D was used as negative control. […] The gRNA-J has no effect due to 2 nucleotides mismatch to the LTR sequence from TZM-bI cells.
FIG. 8A, FIG. 8B, FIG. 8C, and FIG. 8D, depict the results of experiments of screening of MS2-mediated sgRNAs (msgRNAs) targeting the HIV-1 long terminal repeat (LTR) in the dCas9-synergistic activation mediator (SAM) system. FIG. 8A is a schematic illustration of SAM-VPH complex derived from dCas9-VP64 (V) and MS2-p65-HSF1 (PH) with msgRNAs. FIG. 8B is a graph showing similar activation of transfected EcoHIV-eLuc reporter by inducible (TRE) or constitutive (LTR) dCas9-VP64 expression in HEK293T cells. FIG. 8C is a graph showing similar reactivation of latent HIV-LTR-eLuc reporter in TZM-bI cells after either transient plasmid transfection by Lipofectamine 3000 or stable infection by lentivirus. […] The gRNA-J has no effect due to 2 nucleotides mismatch to the LTR sequence from TZM-bI cells. […]
FIG. 9A and FIG. 9B: TZM-bI cells were infected with dCas9-VPH and indicated msgRNA lentiviruses at 1 or 10 MOI and luciferase activity was measured at 2-21 days post-infection (dpi). […]
(§1) FIG. 12A, FIG. 12B, FIG. 12C: The dCas9-VPH stable TZM-bI cells were treated with SAHA or infected with indicated msgRNAs lentivirus for 2-4 d before luminescence reporter assay (FIG. 12A) and CELLTITER-GLO® luminescent cell viability assay (FIG. 12B). […]
Experiments were conducted to compare reactivation of HIV-LTR luciferase reporter in TZM-BI cells induced by gRNA/dCas9-VP64/MS2-p65-HSF1/delivered by either transient plasmid transfection (FIG. 3A) or stable lentivirus infection (FIG. 3B). […] Two days later, OneGlo luminescence assay was performed. […]

HIV-1 LTR promoter [2] = assay: HIV-1 EGFP reporter reactivation in latent CHME5 microglial cells; assay type: cell-based; details: dCas9-VPH stable CHME5, 500 nM, 4 d
Text: Cells were infected with pMSCV-LTR-dCas9-VP64-puromycin and Lenti-MS2-p65-HSF1-hygromysin, selected for 10 days. The population cells were infected with Lenti-MS2-gRNAs-Zeosin and the fluorescent micrographs were taken at 1 day after infection (FIG. 5B). Cells were continuously cultured for 7 days, and selected with triple antibiotics (puromycin-hygromycin-Zeocin) for 3 days before flow cytometry (FIG. 5C).
FIG. 9A and FIG. 9B: TZM-bI cells were infected with dCas9-VPH and indicated msgRNA lentiviruses at 1 or 10 MOI and luciferase activity was measured at 2-21 days post-infection (dpi). FIG. 9C, FIG. 9D: indicated HIV-1 EGFP reporter T cell lines were infected with dCas9-VPH and indicated msgRNAs lentiviruses at 10 MOI and flow cytometric analysis for EGFP percentage (FIG. 9C) and individual intensity (FIG. 9D) was performed at 1 dpi. […]
as §1
Cells were trypsinized (for CHME5) or collected (for suspension T cell lines), washed with PBS and fixed in 2% paraformaldehyde for 10 minutes at room temperature. Then, cells were washed twice with PBS and analyzed using a Guava EasyCyte Mini flow cytometer (Guava Technologies). […]

**Q.** What does the source list for `O=C(CCCCCCC(=O)Nc1ccccc1)NO` [SAHA, suberoylanilide hydroxamic acid]?
**A.** activation of LTR-eLuc reporter (HIV-1 LTR promoter [1]; TZM-bI, 500 nM): did not activate; reactivation of LTR-eLuc reporter (HIV-1 LTR promoter [1]; TZM-bI, 5,000 nM): 4 fold; HIV-1 provirus reactivation (EGFP) (HIV-1 LTR promoter [2]): marginal increase
